The target of one assay is T1, CDK4/cyclin D1 (Homo sapiens, UniProt P11802).
T1 construct: purchased Eurofins Pharma Discovery or Reaction Biology Corporation (radiometric service)
The experiment in a line: CDK inhibition, kinase assay (radiometric / ADP Glo). Format: biochemical. The protocol:
Serial dilutions of 1:3 were prepared for test compounds for 10 concentrations (from 10 μM to 0.5 nM). […] Positive and negative controls were performed in the presence and absence of CDK kinases, respectively. Half-maximal inhibition (IC50) values were calculated using a 4-parameter logistic non-linear regression model with Graphpad prism (Version 6.0). Apparent inhibition constants (Ki) values were calculated from Km (ATP) and IC50 values for the respective kinases.
(In general: In ADP-Glo the light output rises with the ADP produced.)

In assay [1] the test system is other members of CDK family. The assay is described as follows: Kinase profiling of CDK family. Type of assay: biochemical. The protocol:
Eurofins Pharma Discovery or Reaction Biology Corporation Kinase Profiler services were used to measure inhibition of CDKs and other kinases by radiometric assay (RIA). Inhibition of CDK4/cyclin D1, CDK6/cyclin D3 and CDK9/cyclin T1 were also determined using ADP Glo Kinase assays (Promega Corporation, Madison WI, United States of America). Briefly, the kinase reaction for CDK4/cyclin D1 and CDK6/cyclin D3 was performed with kinase reaction buffer ([…] Tris base pH 7.5, 20 mM MgCl2, 0.4 mM DTT), 0.1 mg/ml BSA and RB-CTF substrate (retinoblastoma protein1 C-terminal fraction). For CDK9/cyclin T1, the kinase reaction was performed with standard assay buffer and Kinase Dilution Buffer and RBER-IRStide substrate. Serial dilutions of 1:3 were prepared for test compounds for 10 concentrations (from 10 μM to 0.5 nM). The kinase reactions were started by addition of ATP, incubated for 40 min at […] and then stopped by adding 10 μL of ADP Glo reagent. […] Luminescence was measured using an EnVision Multilabel plate reader (PerkinElmer, Buckinghamshire, United Kingdom). […] Half-maximal inhibition (IC50) values were calculated using a 4-parameter logistic non-linear regression model with Graphpad prism (Version 6.0). Apparent inhibition constants (Ki) values were calculated from Km (ATP) and IC50 values for the respective kinases.

The subject of assay [2] is CT26.WT colorectal cancer cells. The experiment in a line: In vivo anti-tumour activity in mice with a colorectal cancer syngeneic allograft. Further details: species or system mouse. The method, then:
Murine triple-negative breast cancer EMT6 tumour cells (ATCC® CRL-2755™) and colorectal cancer CT26.WT cells (ATCC® CRL-2638™) were cultured and expanded in RPMI-1640 medium (Roswell Park Memorial Institute Medium-1640) with L-glutamine and sodium bicarbonate (Sigma-Aldrich, Macquarie Park, NSW, Australia) supplemented with 10% heat-inactivated foetal bovine serum (FBS). Cells were cultured in an incubator at 5% CO2 37° C.
(§1) CT26.WT colorectal cancer cells were harvested and re-suspended in a 1:1 mixture of Matrigel™ (#354234; Corning Life Sciences, Corning, NY, United States of America) and serum-free RPMI-1640 medium, and thereafter injected sub-cutaneously (sc) (7×10^5 cells in a volume of 100 μL) into the right flank of each female BALB/c mouse. After the tumour volume reached ˜100 mm^3, the mice were randomised into two groups (n=8/group) and given vehicle (1% CMC in water), compound 1 (150 mg/kg) once daily by oral administration (QD PO), Anti-PD1 (RMP1-14-derived mouse monoclonal antibody, Assay Matrix, Australia; […]) by intraperitoneal (ip) administration, or compound 1 plus anti-PD-1 antibody (FIG. 1).

Assay [3] relates to T cell populations (CD3+, CD8+). The assay is described as follows: Flow cytometry study of immune profiles in CT26.WT syngeneic mouse model. Type of assay: in vivo. As to conditions: day 14 of dosing, 3 mice of each group.
Excerpt: FIG. 2 provides further graphical results showing the in vivo anti-tumour efficacy of compound 1 in the CT26.WT syngeneic mouse model through activation of immunity. In the experiment, on day 14 of dosing, 3 mice of each group were sacrificed for flow cytometry study of immune profiles.
as §1, with “1). Compound 1 achieved significant tumour growth inhibition with a T/C=24% when used alone, and T/C=14% when used in the combination with the anti-PD-1 antibody, as measured on day 14 of dosing (FIG. 1).” for “1).”

Here are results for one molecule from patent publication US20250049795A1, “USE OF 5-(2-((5-(4-(DIMETHYLAMINO)PIPERIDIN-1-YL)PYRIDIN-2-YL)AMINO)-5-FLUOROPYRIMIDIN-4-YL)-N,4-DIMETHYLTHIAZOL-2-AMINE IN COMBINATION THERAPIES FOR CANCER” (Aucentra Therapeutics Pty Ltd, priority 2022, published 2025).

The structures appear in SMILES notation. Entries after “also recorded” stand apart in the source; their conditions may differ.

T1 sequence (P11802 whole entry): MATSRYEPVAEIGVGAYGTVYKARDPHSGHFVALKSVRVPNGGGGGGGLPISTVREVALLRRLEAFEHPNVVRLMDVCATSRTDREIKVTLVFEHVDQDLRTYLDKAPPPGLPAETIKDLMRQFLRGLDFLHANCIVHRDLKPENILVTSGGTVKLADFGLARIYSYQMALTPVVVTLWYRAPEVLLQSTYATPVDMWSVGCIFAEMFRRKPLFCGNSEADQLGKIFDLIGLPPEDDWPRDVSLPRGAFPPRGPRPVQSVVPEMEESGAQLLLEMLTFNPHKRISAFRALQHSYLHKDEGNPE
T1 sequence (P24385 whole entry partner): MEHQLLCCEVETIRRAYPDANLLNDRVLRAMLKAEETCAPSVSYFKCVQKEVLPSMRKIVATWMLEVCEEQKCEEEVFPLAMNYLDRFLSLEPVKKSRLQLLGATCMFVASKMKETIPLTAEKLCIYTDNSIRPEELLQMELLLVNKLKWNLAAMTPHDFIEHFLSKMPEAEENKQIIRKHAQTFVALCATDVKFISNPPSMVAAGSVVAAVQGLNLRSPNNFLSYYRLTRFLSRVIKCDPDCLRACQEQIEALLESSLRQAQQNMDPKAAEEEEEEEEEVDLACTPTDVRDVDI

`CNc1nc(C)c(-c2nc(Nc3ccc(N4CCC(N(C)C)CC4)cn3)ncc2F)s1` [Compound 1, 5-(2-((5-(4-(dimethylamino)piperidin-1-yl)pyridin-2-yl)amino)-5-fluoropyrimidin-4-yl)-N,4-dimethylthiazol-2-amine]: the “selectivity for CDK4 over CDK6” value on CDK4/cyclin D1 is 140 fold. Besides, the “activity against other members of CDK family” value in assay [1] is “no activity”. In addition, the “extended survival of animals” value in assay [2] (BALB/c mice, CT26.WT allograft, compound 1 150 mg/kg QD PO, anti-PD1 ip, p<0.001) is on record as 60%. Also, the “survival of the mice (in words)” value in assay [2] (BALB/c mice, CT26.WT allograft, p<0.001) is “significantly prolong the survival”. Moreover, the “tumor volume in treatment vs control ratio (T/C)” value in assay [2] (female BALB/c mice, sc CT26.WT allograft, day 14 of dosing, compound 1 150 mg/kg QD PO, Anti-PD1 150 g/mouse/wk ip) is recorded as 24%. For the same molecule, in assay [3], the “T cell populations (% CD3+ and % CD8+) in spleen, blood and tumour samples” value is listed as “increased T cell populations; also recorded: increased level”.
